Assay results reported in ChEMBL document CHEMBL5465560, “Selectivity Literature for EUbOPEN Chemogenomic Library” (2024).
Blank lines part the entries; values can stand above or below the molecule they belong to.

Columns and labels:
[1] = molecular target: Cyclin-dependent kinase 5/CDK5 activator 1 (Homo sapiens) (UniProt Q00535+Q15078); experiment: Selectivity interaction (Kinase panel (Invitrogen)) EUB0000639a CDK5; format: protein-complex assay; settings: at 200 nM
[2] = molecular target: T1, Dual specificity tyrosine-phosphorylation-regulated kinase 4 (Homo sapiens) (UniProt Q9NR20); experiment: Selectivity interaction (Kinase panel (Invitrogen)) EUB0000639a DYRK4; settings: at 200 nM
T1 sequence (whole entry): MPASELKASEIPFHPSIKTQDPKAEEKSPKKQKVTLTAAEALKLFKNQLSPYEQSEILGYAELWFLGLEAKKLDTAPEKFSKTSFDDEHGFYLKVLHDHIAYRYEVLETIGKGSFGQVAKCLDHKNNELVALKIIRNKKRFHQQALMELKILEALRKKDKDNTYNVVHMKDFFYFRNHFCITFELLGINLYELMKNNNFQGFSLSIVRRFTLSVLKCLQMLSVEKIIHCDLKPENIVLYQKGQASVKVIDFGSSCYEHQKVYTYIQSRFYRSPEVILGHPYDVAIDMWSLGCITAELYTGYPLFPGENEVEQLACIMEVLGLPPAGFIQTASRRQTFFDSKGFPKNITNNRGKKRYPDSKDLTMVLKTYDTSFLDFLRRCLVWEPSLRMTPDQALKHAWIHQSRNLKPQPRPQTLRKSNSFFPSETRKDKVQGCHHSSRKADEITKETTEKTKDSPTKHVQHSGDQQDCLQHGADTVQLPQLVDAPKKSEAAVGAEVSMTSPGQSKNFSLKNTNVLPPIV

[3] = molecular target: Casein kinase I isoform alpha (Homo sapiens, UniProt P48729); experiment: Selectivity interaction (Enzymatic assay) EUB0001199aCl CSNK1A1
Sequence of Casein kinase I isoform alpha (P48729 whole entry, canonical isoform): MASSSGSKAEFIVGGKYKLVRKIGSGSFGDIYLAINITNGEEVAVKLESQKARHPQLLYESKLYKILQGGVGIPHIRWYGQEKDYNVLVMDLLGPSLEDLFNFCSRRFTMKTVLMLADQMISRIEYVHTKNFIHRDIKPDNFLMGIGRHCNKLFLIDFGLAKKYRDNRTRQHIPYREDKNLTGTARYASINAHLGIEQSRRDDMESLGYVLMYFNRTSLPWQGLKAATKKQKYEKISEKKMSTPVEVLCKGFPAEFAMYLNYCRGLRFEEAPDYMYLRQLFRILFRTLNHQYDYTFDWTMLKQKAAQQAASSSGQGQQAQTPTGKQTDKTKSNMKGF

[4] = molecular target: Melanocortin receptor 4 (Homo sapiens) (UniProt P32245); experiment: Selectivity interaction (Eurofins CEREP Diversity Profile (receptors and ion channels)) EUB0000279b MC4R; settings: at 10 µM
Sequence of Melanocortin receptor 4 (Homo sapiens) (P32245 whole entry): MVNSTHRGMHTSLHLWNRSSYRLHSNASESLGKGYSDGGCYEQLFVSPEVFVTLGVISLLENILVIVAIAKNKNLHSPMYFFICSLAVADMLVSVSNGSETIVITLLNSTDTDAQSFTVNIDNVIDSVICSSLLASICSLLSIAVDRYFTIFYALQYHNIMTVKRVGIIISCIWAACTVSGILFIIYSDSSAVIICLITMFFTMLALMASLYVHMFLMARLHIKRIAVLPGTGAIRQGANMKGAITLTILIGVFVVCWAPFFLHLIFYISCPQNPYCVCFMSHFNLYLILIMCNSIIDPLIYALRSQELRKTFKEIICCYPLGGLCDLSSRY

[5] = molecular target: T2, Ephrin type-A receptor 6 (Homo sapiens) (UniProt Q9UF33); experiment: Selectivity interaction (ProQinase) EUB0000171b EPHA6
T2 sequence (whole entry): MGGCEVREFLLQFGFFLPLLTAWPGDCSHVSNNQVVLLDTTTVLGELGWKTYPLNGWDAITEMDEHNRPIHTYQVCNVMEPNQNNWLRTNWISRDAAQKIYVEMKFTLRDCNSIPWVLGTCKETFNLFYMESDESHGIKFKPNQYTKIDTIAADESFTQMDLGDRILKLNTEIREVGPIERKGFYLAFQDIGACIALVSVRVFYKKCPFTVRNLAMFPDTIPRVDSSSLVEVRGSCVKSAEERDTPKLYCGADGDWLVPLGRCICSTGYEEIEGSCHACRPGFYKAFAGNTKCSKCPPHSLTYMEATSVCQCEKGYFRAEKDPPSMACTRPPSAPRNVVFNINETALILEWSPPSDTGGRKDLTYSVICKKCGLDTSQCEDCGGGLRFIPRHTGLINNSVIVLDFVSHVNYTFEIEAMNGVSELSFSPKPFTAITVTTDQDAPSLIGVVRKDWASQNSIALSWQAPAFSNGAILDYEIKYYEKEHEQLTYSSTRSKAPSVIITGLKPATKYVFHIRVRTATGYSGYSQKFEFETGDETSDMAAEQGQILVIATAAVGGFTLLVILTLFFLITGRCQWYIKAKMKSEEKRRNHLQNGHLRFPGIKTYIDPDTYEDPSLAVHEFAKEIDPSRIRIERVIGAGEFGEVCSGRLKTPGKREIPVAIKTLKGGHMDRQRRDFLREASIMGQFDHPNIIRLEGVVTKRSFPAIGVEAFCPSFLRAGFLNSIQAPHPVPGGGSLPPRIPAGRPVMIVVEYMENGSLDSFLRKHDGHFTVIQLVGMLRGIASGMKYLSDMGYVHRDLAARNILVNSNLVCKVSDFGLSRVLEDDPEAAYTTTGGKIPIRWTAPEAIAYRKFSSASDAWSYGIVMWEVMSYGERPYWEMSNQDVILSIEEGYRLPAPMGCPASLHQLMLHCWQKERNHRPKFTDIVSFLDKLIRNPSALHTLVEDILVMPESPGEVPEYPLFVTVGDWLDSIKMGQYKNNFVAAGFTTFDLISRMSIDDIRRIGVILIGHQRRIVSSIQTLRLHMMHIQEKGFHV

[6] = molecular target: Tyrosine-protein kinase JAK1 (Homo sapiens, UniProt P23458); experiment: Selectivity interaction (KinomeScan (DiscoverX)) EUB0000045b JAK1; settings: at 10 µM
Sequence of Tyrosine-protein kinase JAK1 (P23458 whole entry): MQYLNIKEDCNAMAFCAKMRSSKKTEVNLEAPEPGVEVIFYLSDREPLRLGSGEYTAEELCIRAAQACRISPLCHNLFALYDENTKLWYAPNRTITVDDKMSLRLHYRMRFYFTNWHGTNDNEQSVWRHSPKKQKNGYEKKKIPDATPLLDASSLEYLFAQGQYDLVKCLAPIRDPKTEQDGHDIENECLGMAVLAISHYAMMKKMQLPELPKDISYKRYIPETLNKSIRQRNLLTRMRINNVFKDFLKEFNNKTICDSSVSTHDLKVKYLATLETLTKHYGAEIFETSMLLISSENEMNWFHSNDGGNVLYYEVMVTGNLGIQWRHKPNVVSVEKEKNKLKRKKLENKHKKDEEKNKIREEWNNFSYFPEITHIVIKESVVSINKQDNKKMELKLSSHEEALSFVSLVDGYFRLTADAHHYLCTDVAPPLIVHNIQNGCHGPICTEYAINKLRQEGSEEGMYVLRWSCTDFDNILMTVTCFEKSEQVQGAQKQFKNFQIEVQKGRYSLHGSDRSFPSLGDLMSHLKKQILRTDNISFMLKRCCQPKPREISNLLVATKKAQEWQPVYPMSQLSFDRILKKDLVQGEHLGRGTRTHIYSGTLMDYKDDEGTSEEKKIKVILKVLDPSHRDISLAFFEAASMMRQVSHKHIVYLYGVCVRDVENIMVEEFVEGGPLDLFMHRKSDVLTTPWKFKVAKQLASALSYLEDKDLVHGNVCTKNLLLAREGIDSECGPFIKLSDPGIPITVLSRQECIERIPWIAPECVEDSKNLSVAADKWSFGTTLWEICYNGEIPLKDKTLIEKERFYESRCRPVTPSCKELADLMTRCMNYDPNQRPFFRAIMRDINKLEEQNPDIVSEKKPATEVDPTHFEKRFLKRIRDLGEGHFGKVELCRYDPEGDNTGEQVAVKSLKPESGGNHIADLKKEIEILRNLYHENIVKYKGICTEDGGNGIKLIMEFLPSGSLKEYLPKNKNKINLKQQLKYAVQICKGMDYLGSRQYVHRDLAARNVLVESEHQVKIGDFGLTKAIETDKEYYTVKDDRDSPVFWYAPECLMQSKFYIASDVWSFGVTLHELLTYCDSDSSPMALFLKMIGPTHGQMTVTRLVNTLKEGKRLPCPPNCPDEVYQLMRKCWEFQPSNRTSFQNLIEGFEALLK

[7] = molecular target: T3, Ephrin type-B receptor 1 (Homo sapiens) (UniProt P54762); experiment: Selectivity interaction (KinomeScan (DiscoverX)) EUB0000618a EPHB1; settings: at 10 µM
T3 sequence (whole entry): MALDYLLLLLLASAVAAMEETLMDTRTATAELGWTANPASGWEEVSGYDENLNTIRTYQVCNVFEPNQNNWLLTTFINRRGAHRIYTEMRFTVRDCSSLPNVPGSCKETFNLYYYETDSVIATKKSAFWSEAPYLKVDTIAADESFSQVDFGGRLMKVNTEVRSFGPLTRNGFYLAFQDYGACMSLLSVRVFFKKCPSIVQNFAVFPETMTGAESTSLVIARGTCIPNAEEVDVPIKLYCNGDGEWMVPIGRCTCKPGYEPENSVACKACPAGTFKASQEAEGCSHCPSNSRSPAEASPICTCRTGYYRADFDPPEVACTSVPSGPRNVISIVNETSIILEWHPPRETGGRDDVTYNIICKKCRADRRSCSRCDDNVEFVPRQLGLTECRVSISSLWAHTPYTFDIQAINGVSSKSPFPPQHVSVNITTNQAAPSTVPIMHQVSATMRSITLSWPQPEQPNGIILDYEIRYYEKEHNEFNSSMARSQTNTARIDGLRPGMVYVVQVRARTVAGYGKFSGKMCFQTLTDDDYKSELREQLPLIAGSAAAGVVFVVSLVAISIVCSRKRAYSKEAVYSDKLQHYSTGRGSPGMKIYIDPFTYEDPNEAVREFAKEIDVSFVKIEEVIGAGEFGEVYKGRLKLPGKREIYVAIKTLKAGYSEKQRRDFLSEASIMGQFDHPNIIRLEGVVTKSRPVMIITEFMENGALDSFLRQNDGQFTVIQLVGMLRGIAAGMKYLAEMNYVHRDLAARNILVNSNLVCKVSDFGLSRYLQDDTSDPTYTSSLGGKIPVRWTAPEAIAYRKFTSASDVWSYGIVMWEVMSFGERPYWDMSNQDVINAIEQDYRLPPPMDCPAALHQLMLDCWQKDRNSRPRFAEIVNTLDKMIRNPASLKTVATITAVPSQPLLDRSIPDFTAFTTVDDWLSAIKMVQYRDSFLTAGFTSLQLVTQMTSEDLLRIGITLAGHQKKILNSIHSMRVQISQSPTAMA

[8] = molecular target: Serine/threonine-protein kinase Nek4 (Homo sapiens) (UniProt P51957); experiment: Selectivity interaction (KinomeScan (DiscoverX)) EUB0000607a NEK4; settings: at 10 µM
Sequence of Serine/threonine-protein kinase Nek4 (Homo sapiens) (P51957 whole entry, looked up): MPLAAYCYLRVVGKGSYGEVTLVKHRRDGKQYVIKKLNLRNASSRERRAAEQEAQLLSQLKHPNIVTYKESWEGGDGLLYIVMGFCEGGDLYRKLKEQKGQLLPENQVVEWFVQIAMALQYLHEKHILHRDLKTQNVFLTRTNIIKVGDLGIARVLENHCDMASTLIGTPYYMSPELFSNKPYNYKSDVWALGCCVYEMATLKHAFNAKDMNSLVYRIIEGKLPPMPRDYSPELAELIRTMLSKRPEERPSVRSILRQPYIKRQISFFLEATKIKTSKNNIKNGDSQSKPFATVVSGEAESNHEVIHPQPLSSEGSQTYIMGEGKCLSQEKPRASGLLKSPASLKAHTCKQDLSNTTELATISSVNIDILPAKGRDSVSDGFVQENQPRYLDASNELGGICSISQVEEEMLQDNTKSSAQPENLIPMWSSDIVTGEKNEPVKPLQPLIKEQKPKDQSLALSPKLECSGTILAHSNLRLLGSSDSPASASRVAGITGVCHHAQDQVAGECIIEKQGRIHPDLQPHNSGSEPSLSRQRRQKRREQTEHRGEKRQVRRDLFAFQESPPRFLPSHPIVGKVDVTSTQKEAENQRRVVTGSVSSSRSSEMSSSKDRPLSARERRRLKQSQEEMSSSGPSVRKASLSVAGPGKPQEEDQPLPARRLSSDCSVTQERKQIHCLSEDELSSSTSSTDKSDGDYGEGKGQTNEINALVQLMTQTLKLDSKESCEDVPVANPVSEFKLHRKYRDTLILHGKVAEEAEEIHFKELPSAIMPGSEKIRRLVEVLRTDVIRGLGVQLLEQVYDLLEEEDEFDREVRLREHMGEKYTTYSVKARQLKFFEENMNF

Sequence of Cyclin-dependent kinase 5/CDK5 activator 1 (Homo sapiens) (Q00535 whole entry): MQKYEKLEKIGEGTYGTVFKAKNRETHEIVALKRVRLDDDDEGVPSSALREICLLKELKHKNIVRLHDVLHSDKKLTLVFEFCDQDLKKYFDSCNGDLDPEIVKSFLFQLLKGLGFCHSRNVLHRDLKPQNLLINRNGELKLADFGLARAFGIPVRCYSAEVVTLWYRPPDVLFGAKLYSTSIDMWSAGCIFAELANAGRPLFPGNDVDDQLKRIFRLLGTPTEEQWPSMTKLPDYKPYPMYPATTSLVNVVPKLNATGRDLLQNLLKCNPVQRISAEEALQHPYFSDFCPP
Sequence of Cyclin-dependent kinase 5/CDK5 activator 1 (Homo sapiens) (Q15078 99-307 partner limits assumed): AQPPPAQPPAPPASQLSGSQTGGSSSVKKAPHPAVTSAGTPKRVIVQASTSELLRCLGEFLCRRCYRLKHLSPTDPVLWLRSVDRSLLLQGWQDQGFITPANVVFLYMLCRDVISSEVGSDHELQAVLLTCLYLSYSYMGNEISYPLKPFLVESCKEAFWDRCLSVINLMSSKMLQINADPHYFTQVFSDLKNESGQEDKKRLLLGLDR

% of inhibition [1]: 2.19%
% of inhibition [2]: 5.52%
SMILES: CC[C@@H]1[C@H](F)C(=O)N[C@@H]1COc1nccc2cc(C(N)=O)c(OC)cc12 [ZIMLOVISERTIB]

IC50 [3]: 0.63 µM
SMILES: CN1Cc2nccc(-c3cn(C)nc3-c3ccc(F)cc3)c2C1=O

% of control [4]: 90%
SMILES: CC(=O)c1cc(-c2ccccc2OCC2CC2)c2ncccn12

% of control ([5]; at 1 µM): 99%
% of control ([5]; at 5 µM): 100%
SMILES: C=CC(=O)Nc1cccc(C(=O)Nc2ccc(Nc3cc(-c4[nH]c(SC)nc4C)ccn3)cc2)c1

More lines, now with the values behind:

SMILES: C=CC(=O)Nc1cc(-n2c(=O)ccc3cnc4ccc(-c5ccc(NS(C)(=O)=O)cc5)cc4c32)ccc1C
% of control [6]: 93%

SMILES: O[C@H]1CC[C@H](Nc2ncc3nc(Nc4c(F)cc(F)cc4F)n([C@H]4CCOC4)c3n2)CC1
% of control [7]: 96%

SMILES: CNC(=O)Nc1ccc(-c2nc(N3CC4CCC(C3)O4)c3cnn(C4CCC5(CC4)OCCO5)c3n2)cc1
% of control [8]: 82%
